The results in this text go back to PubChem BioAssay (NCI).

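Interpolation was linear, between the two tested concentrations surrounding the appropriate level; five concentrations were tested over 48 hours in 96-well plates. GI50 is the concentration that inhibits growth by half. At the TGI there is no net growth.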

Test in all cases: DTP human tumour cell line panel, 48 h
Experiment [1] relates to SF-539 CNS.
Experiment [2] concerns DU-145 prostate.
The subject of experiment [3] is CAKI-1 renal.
For experiment [4], the system named is OVCAR-8 ovarian.
For experiment [5], the system named is HL-60(TB) leukemia.
The subject of experiment [6] is T-47D breast.
Experiment [7] relates to MOLT-4 leukemia.
Experiment [8] concerns NCI/ADR-RES ovarian.
The subject of experiment [9] is MALME-3M melanoma.
For experiment [10], the system named is EKVX NSCLC.

With `FC(F)(F)c1cccc(CNC2CCN(CCc3ccccc3)CC2)c1`, the GI50 in [1] is 15.3 µM; in experiment [2], 46.3 µM; in experiment [3], 22.4 µM; in experiment [4], 18.2 µM; in [5], 20.9 µM; in [6], 20 µM. For the same compound, the GI50 in experiment [7] is 20.5 µM; in [8], 41.9 µM; in experiment [9], 16 µM. Further, the TGI in [1] is 30.2 µM; in experiment [2], over 100 µM; in [3], over 100 µM; in experiment [4], 43.8 µM; in experiment [5], 49 µM; in [6] it was 52.9 µM. Besides, the concentration for total growth inhibition (TGI) in [7] is 70.4 µM; in experiment [8], over 100 µM; in experiment [9], 31 µM.
On to `OCc1ccc(N2CCc3ccc(F)cc3C2)cc1Cl`, for which the GI50 in [1] was 15.9 µM; in [2] it was 7.06 µM; in experiment [3], 1.01 µM; in experiment [4], 7.05 µM; in experiment [5], 1.12 µM; in experiment [6], 0.101 µM. The results for the GI50 in experiment [7], in [8] and in [9] were 4.48 µM, 5.22 µM and 12.1 µM, respectively. Moreover, the concentration for total growth inhibition (TGI) in [1] is 31 µM; in experiment [2], 21.2 µM; in experiment [3] it was 9.62 µM; in experiment [4], 20.7 µM; in experiment [5] it was 14.5 µM; in [6], 0.499 µM. Also, the total growth inhibition concentration (TGI) in experiment [7] came out at 30.5 µM; in experiment [8] it was 25.6 µM; in experiment [9], 26.9 µM.
Regarding `O=C1NC(=NCc2cccs2)O/C1=C\c1ccc2ncccc2c1`, the GI50 in experiment [1] is 2.87 µM; in experiment [2], 5.82 µM; in experiment [3] it was 3.86 µM; in [4], 4.27 µM; in experiment [5] it was 4.64 µM; in experiment [6] it was 2.98 µM. Further, the figures for the GI50 in [7], in [8] and in experiment [9] were 4.88 µM, 7.8 µM and 4.85 µM, respectively. Moreover, the TGI was 8.59 µM in [1]; over 25 µM in experiment [2]; 12.3 µM in experiment [3]; 16.6 µM in [4]; 15.3 µM in [5]; 12.6 µM in [6]. Further, the TGI in experiment [7] is 12.4 µM; in [8], over 25 µM; in [9] it was 15.3 µM.
With `O=C(CCN1CCOCC1)Nc1ccc(Cn2nnc3c2C(=O)c2nnn(Cc4ccc(NC(=O)CCN5CCOCC5)cc4)c2C3=O)cc1`, the GI50 was 0.913 µM in experiment [1]; 18.6 µM in experiment [2]; over 100 µM in experiment [3]; over 100 µM in experiment [4]; over 100 µM in experiment [10]; 1.14 µM in experiment [5]. The results for the GI50 in [7], in experiment [8] and in [9] were 0.763 µM, over 100 µM and 0.247 µM, respectively. For the same compound, the TGI is 5.11 µM in experiment [1]; over 52.4 µM in [2]; over 100 µM in [3]; over 100 µM in experiment [4]; over 100 µM in [10]; 4.63 µM in experiment [5]. In addition, the concentration for total growth inhibition (TGI) in [7] was 3.48 µM; in experiment [8], over 100 µM; in experiment [9] it was 0.747 µM.
As for `O=[N+]([O-])c1ccc(/C=C(/c2ccc([N+](=O)[O-])o2)S(=O)(=O)c2ccccc2)cc1`, the concentration for total growth inhibition (TGI) in experiment [1] was 98.3 µM; in experiment [2], over 100 µM; in experiment [3] it was over 100 µM; in [4], over 100 µM; in experiment [5] it was 74.1 µM; in experiment [6], over 100 µM. For the same compound, the concentration for total growth inhibition (TGI) is 37.5 µM in [7], over 100 µM in experiment [8] and 87.5 µM in experiment [9].
For the compound `O=C1Nc2ccc(Cl)cc2/C1=N/c1nc(-c2ccc(Cl)cc2)cs1`, the values for the GI50 in [2], in experiment [6] and in [7] were 1.42 µM, 0.938 µM and 1.61 µM, respectively. The total growth inhibition concentration (TGI) in experiment [2] is 2.79 µM; in experiment [6] it was 5.8 µM; in [7], over 100 µM.
On to `O=C1c2ccccc2-c2c1c1c(O)cccc1n2Cc1ccccc1`, for which the GI50 in experiment [1] was 14.2 µM; in experiment [2], 11.9 µM; in [3], 7.15 µM; in experiment [4], 28.6 µM; in experiment [10], 16.5 µM; in experiment [6], 7.8 µM. Also, the GI50 is over 100 µM in experiment [7], 6.5 µM in [8] and 2.76 µM in [9]. Besides, the concentration for total growth inhibition (TGI) was 35.3 µM in experiment [1]; 64.7 µM in experiment [2]; 20.8 µM in experiment [3]; over 100 µM in [4]; 69.2 µM in experiment [10]; 90.2 µM in experiment [6]. In addition, the TGI in experiment [7] is over 100 µM; in experiment [8] it was 33.6 µM; in experiment [9] it was 8.65 µM.
As for `O=C(O)c1cn(C2CC2)c2cc(N3CCN(C(=O)N(c4ccccc4)c4nc(-c5ccccc5)cs4)CC3)c(F)cc2c1=O`, the GI50 in experiment [2] was 0.521 µM; in experiment [4] it was 0.378 µM; in experiment [10], 0.397 µM; in experiment [6], 2.3 µM. Moreover, the concentration for total growth inhibition (TGI) in experiment [2], in [4], in experiment [10] and in [6] was over 100 µM each time.
For the compound `C=CCN(CC=C)Cc1c[nH]c2ccccc12`, the GI50 is 19.8 µM in experiment [3]; 11.9 µM in experiment [4]; 84.2 µM in [5]; over 100 µM in experiment [6]; 72.7 µM in experiment [7]; 18.3 µM in experiment [8]. The GI50 in [9] was 7.83 µM. Moreover, the concentration for total growth inhibition (TGI) is over 100 µM in experiment [3]; 69 µM in [4]; over 100 µM in experiment [5]; over 100 µM in experiment [6]; over 100 µM in experiment [7]; 43.8 µM in [8]. Further, in experiment [9], the TGI was found to be 67.7 µM.
In the case of `OC[C@H]1C[C@](O)(c2ccc(F)cc2)[C@@H](c2ccc(F)cc2)O1`, the GI50 in experiment [1], in [2], in [3], in experiment [4], in experiment [10] and in experiment [5] was over 100 µM throughout. Also, the GI50 in [7], in experiment [8] and in experiment [9] was over 100 µM throughout. Besides, the total growth inhibition concentration (TGI) in experiment [1], in experiment [2], in experiment [3], in experiment [4], in experiment [10] and in [5] was over 100 µM in each case. Besides, the total growth inhibition concentration (TGI) in experiment [7], in experiment [8] and in experiment [9] was over 100 µM in each case.

By GI50 is commonly meant the concentration at which growth is held to half of that of the control. A word on the TGI: it is the concentration at which net growth stops. A high value points to lower sensitivity of the cells.
